Data taken from EP4647061A1, “COMPOSITION CONTAINING RETINOL AND SYNERGIST AND USE THEREOF” (Guangzhou Jiyan Cosmetics Technology Co., Ltd., priority 2024, dated 2025).

Legend:
Type in all cases: cell-based
COLI (type I collagen) = assay: Transcription of type I collagen (COL I) by qRT-PCR in UVA-stimulated fibroblast model; conditions: for PCR Transcription of Type I Collagen (COL I) Up-regulation Rate Compared with NC Group: UVA 30 J/cm^2, (sample - NC)/NC x 100%; for PCR Transcription of Type I Collagen (COL I) Mean Value: UVA 30 J/cm^2, mRNA by 2^-ΔΔCT normalised to BC = 1 (NC 0.43), dosing: TGF-β1 100 ng/mL, Pro-xylane 0.5000%, tetrapeptide-1 0.00109%, encapsulated retinol 0.00313%, gum 0.00222%, combinations at the same concentrations, 1440 min
Experimental: (§1) Testing method: based on UVA-stimulated fibroblast model, transcription of type I and type III collagens was tested using qRT-PCR method, and specific steps were as follows: • 1) Cell inoculation: after resuscitation of fibroblasts, when a plating rate reached about 60%, cells were inoculated in a 6-well plate, and incubated overnight in an incubator (37 °C, 5% CO2). • 2) Liquid formulation: according to test schemes (see TABLE 1 and TABLE 2), test substance working solutions were formulated respectively according to mass ratios. TABLE 1 COL I Detection Scheme
(§2) 3) Dosing: according to the test schemes in TABLE 1 and TABLE 2, when the plating rate of the cells in the 6-well plate reached about 30%-50%, dosing was performed for the groups respectively, with each group in triplicate. The blank control group and the negative control group were added with 2 mL of a culture solution per well, the positive control group was added with 2 mL of a TGF-β1-containing culture solution per well, and sample group was added with 2mL of a test sample-containing culture solution at corresponding concentration per well. After the dosing was completed, the 6-well plate continued to be cultured in the CO2 incubator (37 °C, 5% CO2) for 24 h.
(§3) 4) UVA stimulation: according to test groups, except the blank control group, other groups were all subjected to UVA irradiation, with an irradiation dosage of 30 J/cm^2. After the irradiation was finished, culture was continued in the CO2 incubator (37 °C, 5% CO2) for 24 h.
(§4) 5) Cell collection: after incubation was ended, an original solution was sucked out and discarded, PBS cleaning was performed twice, and each well was added with 1 mL of RNAiso Plus, to pipet and lyse the cells, after which samples were collected.
(§5) 6) Detection of gene expression: RNA was extracted and subjected to reverse transcription to cDNA to undergo fluorescence quantitative PCR detection, and result was calculated by a 2^-△△CT method.
(§6) 7) Calculation of up-regulation rate: Up-regulation rate (%) = (Sample group−Negative control group)/(Negative control group) × 100% [formula]
(§7) 8) Data analysis: statistical analysis was performed using t-test method, and normalization processing was performed on amplification factors of mRNA in BC group, where all statistical analysis was double-tailed. Compared with the blank group, significance is expressed by ^#, p<0.05 is expressed by ^#, p<0.01 is expressed by ^##; compared with the negative blank group, significance is expressed by*, p<0.05 is expressed by *, p<0.01 is expressed by **.

[1] = test system: COL III (type III collagen); assay: Transcription of type III collagen (COL III) by qRT-PCR in UVA-stimulated fibroblast model; conditions: for PCR Transcription of Type III Collagen (COL III) Up-regulation Rate Compared with NC Group: UVA 30 J/cm^2, (sample - NC)/NC x 100%; for PCR Transcription of Type III Collagen (COL III) Mean Value: UVA 30 J/cm^2, mRNA by 2^-ΔΔCT normalised to BC = 1 (NC 0.67), dosing: TGF-β1 100 ng/mL, Pro-xylane 0.5000%, tetrapeptide-1 0.00109%, encapsulated retinol 0.00313%, combination at the same concentrations, 1440 min
Experimental: as §1, §2, §3, §4, §5, §6, §7

[2] = test system: CRABP2 cellular retinoic acid binding protein 2; assay: Transcription of CRABP2 by qRT-PCR in UVA-stimulated fibroblast model
Experimental: Testing method: based on UVA-stimulated fibroblast model, transcription of CRABP2 was tested using qRT-PCR method, and specific steps were as follows: • 1) Cell inoculation: after resuscitation of cells, when a plating rate reached about 60%, the cells were inoculated in a 6-well plate, and incubated overnight in an incubator (37 °C, 5% CO2). • 2) Liquid formulation: according to a test scheme (see TABLE 5), test substance working solutions were formulated respectively according to mass ratios. TABLE 5 CRABP2 Detection Scheme
as §2, with “According” for “according”, “scheme” for “schemes”, “5,” for “1 and TABLE 2,”, “2 mL” for “2mL”, “h. […]” for “h.”
6) Detection of gene expression: RNA was extracted and subjected to reverse transcription to cDNA to undergo fluorescence quantitative PCR detection, and result was calculated by a 2^-△△CT method. […]

| Compound | PCR Transcription of Type I Collagen (COL I) Up-regulation Rate Compared with NC Group (COLI (type I collagen)) | PCR Transcription of Type I Collagen (COL I) Mean Value (COLI (type I collagen)) | PCR Transcription of Type III Collagen (COL III) Up-regulation Rate Compared with NC Group [1] | PCR Transcription of Type III Collagen (COL III) Mean Value [1] | Transcription of Cellular Retinoic Acid Binding Protein 2 (CRABP2) Up-regulation Rate Compared with NC Group ([2]; UVA 30 J/cm^2, (sample - NC)/NC x 100%) | Transcription of Cellular Retinoic Acid Binding Protein 2 (CRABP2) Mean Value ([2]; UVA 30 J/cm^2, mRNA by 2^-ΔΔCT normalised to BC = 1 (NC 0.48), dosing: TGF-β1 100 ng/mL, gum 0.00222%, encapsulated retinol 0.00313%, tetrapeptide-1 0.00109%, combinations at the same concentrations, 1440 min) |
| --- | --- | --- | --- | --- | --- | --- |
| CC(O)C[C@@H]1OC[C@@H](O)[C@H](O)[C@H]1O (stereo partly shown) [Comparative Example 1, Pro-xylane, reference compound] | 134.88% | 1.01 | 31.34% | 0.88 |  |  |
| Tetrapeptide-1 [Comparative Example 2] | 25.58% | 0.54 | 5.97% | 0.71 | 20.83% | 0.58 |
